Test results from US12146004B2, “Polymyxin compounds and uses thereof” (priority 2014, dated 2024).
Values after ≈ are worked out from the molar mass of the structure shown. Where two headings read alike, the source gives them in different places.

Legend:
Type in all cases: cell-based
Acinetobacter baumannii = test system: Acinetobacter baumannii
Procedure: (§1) To evaluate the potency and spectrum of the compounds, susceptibility testing was performed against up to nine strains of each of the Gram negative pathogens, Escherichia coli, Pseudomonas aeruginosa, Klebsiella pneumoniae and Acinetobacter baumannii.
(§2) The values in Table 2 are MIC (μg/mL) against strains of E. coli, K. pneumoniae, P. aeruginosa and A. baumanii, including strains which show elevated MICs to Polymyxin.
(§3) The values in Table 2A are MIC (μg/mL).
(§4) The in vitro activity of compounds 26 and C7 (FADDI-02) against resistant bacterial strains was compared. The resistant strains included including Escherichia coli, Pseudomonas aeruginosa, Klebsiella pneumoniae and Acinetobacter baumannii strains. The data is provided in Table 2C, where the strains are identified. The values in Table 2 are MIC (μg/mL).

Klebsiella pneumoniae = test system: Klebsiella pneumoniae
Procedure: as §1, §2, §3, §4

Pseudomonas aeruginosa = test system: Pseudomonas aeruginosa
Procedure: as §1, §2, §3, §4

Escherichia coli = test system: Escherichia coli
Procedure: as §1, §2, §3, §4

Row | Structure (SMILES) | MIC A. baumanii ATCC BAA-747 (Acinetobacter baumannii; strain ATCC BAA-747) [mg/L] | MIC A. baumanii NCTC 13424 (Acinetobacter baumannii; strain NCTC 13424) [mg/L] | MIC K. pneumoniae 065 (Klebsiella pneumoniae; strain 065) [mg/L] | MIC K. pneumoniae ATCC 13882 (Klebsiella pneumoniae; strain ATCC 13882) [mg/L] | MIC P. aeruginosa ATCC 27853 (Pseudomonas aeruginosa; strain ATCC 27853) [mg/L] | MIC P. aeruginosa CCUG 59347 (Pseudomonas aeruginosa; strain CCUG 59347) [mg/L] | MIC E. coli 058 (Escherichia coli; strain 058) [mg/L] | MIC E. coli ATCC 25922 (Escherichia coli; strain ATCC 25922) [mg/L] | MIC A. baumanii 056 (Acinetobacter baumannii) [mg/L] | MIC A. baumanii ATCC BAA-747 (Acinetobacter baumannii) [mg/L] | MIC K. pneumoniae 063 (Klebsiella pneumoniae) [mg/L] | MIC K. pneumoniae 065 (Klebsiella pneumoniae) [mg/L] | MIC P. aeruginosa 068 (Pseudomonas aeruginosa) [mg/L] | MIC P. aeruginosa 070 (Pseudomonas aeruginosa) [mg/L] | MIC P. aeruginosa ATCC 27853 (Pseudomonas aeruginosa) [mg/L] | MIC E. coli 058 (Escherichia coli) [mg/L] | MIC E. coli ATCC 25922 (Escherichia coli) [mg/L] | MIC A. baumanii NCTC 13424 (Acinetobacter baumannii) [mg/L] | MIC K. pneumoniae ATCC 13882 (Klebsiella pneumoniae) [mg/L] | MIC P. aeruginosa CCUG 59347 (Pseudomonas aeruginosa) [mg/L] | other results
1 | CC(C)C[C@@H]1NC(=O)[C@@H](CC2CCCCC2)NC(=O)[C@H](CCN)NC(=O)[C@@H](NC(=O)[C@H](CCN)NC(=O)[C@@H](NC(=O)CC(CN)C2CCCCC2)[C@@H](C)O)CCNC(=O)[C@H]([C@@H](C)O)NC(=O)[C@H](CCN)NC(=O)[C@H](CCN)NC1=O (single isomer, unassigned; isomer 1) [Example 86, 4-amino-3-cyclohexylbutanoyl polymyxin [D-cyclohexylalanine-6]nonapeptide. Isomer 1] | 0.125 (≈ 0.11 µM) | 0.125 (≈ 0.11 µM) | 8 (≈ 7.04 µM) | 0.5 (≈ 0.44 µM) | 0.25 (≈ 0.22 µM) | 0.5 (≈ 0.44 µM) | 8 (≈ 7.04 µM) | 0.125 (≈ 0.11 µM) | – | – | – | – | – | – | – | – | – | – | – | – | MIC A. baumanii 053 (Acinetobacter baumannii; strain 053): >64 mg/L; MIC A. baumanii 056 (Acinetobacter baumannii; strain 056): 64 mg/L (≈ 56.3 µM); MIC K. pneumoniae 063 (Klebsiella pneumoniae; strain 063): >64 mg/L; MIC P. aeruginosa 070 (Pseudomonas aeruginosa; strain 070): 8 mg/L (≈ 7.04 µM); MIC E. coli 061 (Escherichia coli; strain 061): 32 mg/L (≈ 28.2 µM); MIC E. coli NCTC 9001 (Escherichia coli; strain NCTC 9001): 0.06 mg/L (≈ 0.0528 µM)
2 | CC(C)C[C@@H]1NC(=O)[C@@H](CC2CCCCC2)NC(=O)[C@H](CCN)NC(=O)[C@@H](NC(=O)[C@H](CCN)NC(=O)[C@@H](NC(=O)CC(CN)CC2CCCCC2)[C@@H](C)O)CCNC(=O)[C@H]([C@@H](C)O)NC(=O)[C@H](CCN)NC(=O)[C@H](CCN)NC1=O (single isomer, unassigned; isomer 1) [Example 91, 4-amino-3-(cyclohexylmethyl) butanoyl polymyxin [D-cyclohexylalanine-6]nonapeptide. Isomer 1] | 0.25 (≈ 0.217 µM) | 0.125 (≈ 0.109 µM) | 4 (≈ 3.48 µM) | 0.25 (≈ 0.217 µM) | 0.25 (≈ 0.217 µM) | 0.5 (≈ 0.435 µM) | 4 (≈ 3.48 µM) | 0.125 (≈ 0.109 µM) | – | – | – | – | – | – | – | – | – | – | – | – | –
3 | CCCCCC/C=C/c1ccc(C[C@H]2NC(=O)[C@H](CCN)NC(=O)[C@@H](NC(=O)[C@H](CN)NC(=O)[C@@H](NC(=O)C3CNCC(CC(C)C)C3)C(C)O)CCNC(=O)[C@H]([C@@H](C)O)NC(=O)[C@H](CCN)NC(=O)[C@H](CCN)NC(=O)[C@H](CC(C)C)NC2=O)cc1 (single isomer, unassigned; isomer 2) [Example 18, (trans-5-(isobutyl-piperidine)-3-carbonyl L-Thr-L-Dap-polymyxin [D-(4-(E)-oct-1-enyl)-Phe]-6]heptapeptide Isomer 2] | – | – | – | – | – | – | – | – | 2 (≈ 1.63 µM) | 2 (≈ 1.63 µM) | 4 (≈ 3.26 µM) | 2 (≈ 1.63 µM) | 4 (≈ 3.26 µM) | 4 (≈ 3.26 µM) | 2 (≈ 1.63 µM) | 2 (≈ 1.63 µM) | 2 (≈ 1.63 µM) | – | – | – | MIC A. baumanii 053 (Acinetobacter baumannii): 2 mg/L (≈ 1.63 µM); MIC K. pneumoniae 062 (Klebsiella pneumoniae): 2 mg/L (≈ 1.63 µM); MIC K. pneumoniae 064 (Klebsiella pneumoniae): 4 mg/L (≈ 3.26 µM); MIC K. pneumoniae 066 (Klebsiella pneumoniae): 2 mg/L (≈ 1.63 µM); MIC K. pneumoniae 067 (Klebsiella pneumoniae): 4 mg/L (≈ 3.26 µM); MIC K. pneumoniae ATCC 4352 (Klebsiella pneumoniae): 2 mg/L (≈ 1.63 µM); MIC E. coli 059 (Escherichia coli): 1 mg/L (≈ 0.815 µM); MIC E. coli 060 (Escherichia coli): 2 mg/L (≈ 1.63 µM); MIC E. coli 061 (Escherichia coli): 2 mg/L (≈ 1.63 µM)
4 | CC(C)C[C@@H]1NC(=O)[C@@H](CC2CCCCC2)NC(=O)[C@H](CCN)NC(=O)[C@@H](NC(=O)[C@H](CCN)NC(=O)[C@@H](NC(=O)C(CCN)Cc2ccccc2)C(C)O)CCNC(=O)[C@H]([C@@H](C)O)NC(=O)[C@H](CCN)NC(=O)[C@H](CCN)NC1=O (single isomer, unassigned; isomer 2) [Example 36, 4-amino-2-benzylbutanoyl-polymyxin [D-cyclohexylalanine]-6 nonapeptide. isomer 2] | – | – | – | – | – | – | – | – | – | 1 (≈ 0.874 µM) | – | 2 (≈ 1.75 µM) | – | – | 0.5 (≈ 0.437 µM) | 8 (≈ 6.99 µM) | 0.125 (≈ 0.109 µM) | 2 (≈ 1.75 µM) | 0.125 (≈ 0.109 µM) | 0.5 (≈ 0.437 µM) | –
5 | CC(C)C[C@@H]1NC(=O)[C@@H](CC2CCCCC2)NC(=O)[C@H](CCN)NC(=O)[C@@H](NC(=O)[C@H](CN)NC(=O)[C@@H](NC(=O)CC(CN)C2CCCCC2)C(C)O)CCNC(=O)[C@H]([C@@H](C)O)NC(=O)[C@H](CCN)NC(=O)[C@H](CCN)NC1=O (single isomer, unassigned; isomer 2) [Example 43, 4-amino-3-cyclohexylbutanoyl L-Thr-L-Dap-polymyxin [D-cyclohexylalanine]-6 heptapeptide. isomer 2] | 0.125 (≈ 0.111 µM) | 0.25 (≈ 0.223 µM) | 0.5 (≈ 0.445 µM) | 0.25 (≈ 0.223 µM) | 0.25 (≈ 0.223 µM) | 0.25 (≈ 0.223 µM) | 1 (≈ 0.891 µM) | 0.25 (≈ 0.223 µM) | – | – | – | – | – | – | – | – | – | – | – | – | MIC A. baumanii 053 (Acinetobacter baumannii; strain 053): 64 mg/L (≈ 57 µM); MIC A. baumanii 056 (Acinetobacter baumannii; strain 056): 32 mg/L (≈ 28.5 µM); MIC K. pneumoniae 063 (Klebsiella pneumoniae; strain 063): 16 mg/L (≈ 14.3 µM); MIC P. aeruginosa 068 (Pseudomonas aeruginosa; strain 068): 2 mg/L (≈ 1.78 µM); MIC P. aeruginosa 070 (Pseudomonas aeruginosa; strain 070): 2 mg/L (≈ 1.78 µM); MIC E. coli 061 (Escherichia coli; strain 061): 8 mg/L (≈ 7.13 µM); MIC E. coli NCTC 9001 (Escherichia coli; strain NCTC 9001): 0.06 mg/L (≈ 0.0535 µM)
6 | CC(C)C[C@@H]1NC(=O)[C@@H](CC2CCCCC2)NC(=O)[C@H](CCN)NC(=O)[C@@H](NC(=O)[C@H](CN)NC(=O)[C@@H](NC(=O)C(CCN)c2ccc(F)cc2)C(C)O)CCNC(=O)[C@H]([C@@H](C)O)NC(=O)[C@H](CCN)NC(=O)[C@H](CCN)NC1=O (single isomer, unassigned; isomer 2) [Example 44, 4-amino-2-(4-fluorophenyl) butanoyl L-Thr-L-Dap-polymyxin [D-cyclohexylalanine]-6 heptapeptide. Isomer 2] | – | – | – | – | – | – | – | – | 8 (≈ 7.05 µM) | 0.06 (≈ 0.0529 µM) | 16 (≈ 14.1 µM) | 0.5 (≈ 0.441 µM) | 2 (≈ 1.76 µM) | 1 (≈ 0.882 µM) | 0.25 (≈ 0.22 µM) | 2 (≈ 1.76 µM) | 0.25 (≈ 0.22 µM) | 0.06 (≈ 0.0529 µM) | 0.25 (≈ 0.22 µM) | 0.5 (≈ 0.441 µM) | MIC K. pneumoniae ATCC 4352 (Klebsiella pneumoniae): 0.125 mg/L (≈ 0.11 µM); MIC E. coli 061 (Escherichia coli): 8 mg/L (≈ 7.05 µM); MIC E. coli NCTC 9001 (Escherichia coli): 0.03 mg/L (≈ 0.0264 µM)
7 | CC(C)C[C@@H]1NC(=O)[C@@H](CC2CCCCC2)NC(=O)[C@H](CCN)NC(=O)[C@@H](NC(=O)[C@H](CN)NC(=O)[C@@H](NC(=O)C(CCN)Cc2cccc(F)c2)C(C)O)CCNC(=O)[C@H]([C@@H](C)O)NC(=O)[C@H](CCN)NC(=O)[C@H](CCN)NC1=O (single isomer, unassigned; isomer 2) [Example 45, 4-amino-2-(3-fluorobenzyl) butanoyl L-Thr-L-Dap-polymyxin [D-cyclohexylalanine]-6 heptapeptide. isomer 2] | – | – | – | – | – | – | – | – | 64 (≈ 55.7 µM) | 0.25 (≈ 0.218 µM) | 16 (≈ 13.9 µM) | 1 (≈ 0.871 µM) | 1 (≈ 0.871 µM) | 1 (≈ 0.871 µM) | 0.125 (≈ 0.109 µM) | 4 (≈ 3.48 µM) | 0.25 (≈ 0.218 µM) | 0.25 (≈ 0.218 µM) | 0.25 (≈ 0.218 µM) | 0.25 (≈ 0.218 µM) | MIC A. baumanii 053 (Acinetobacter baumannii): 64 mg/L (≈ 55.7 µM); MIC E. coli 061 (Escherichia coli): 16 mg/L (≈ 13.9 µM); MIC E. coli NCTC 9001 (Escherichia coli): 0.06 mg/L (≈ 0.0522 µM)
8 | CCC(C)CC(CCN)C(=O)N[C@H](C(=O)N[C@@H](CN)C(=O)N[C@H]1CCNC(=O)[C@H]([C@@H](C)O)NC(=O)[C@H](CCN)NC(=O)[C@H](CCN)NC(=O)[C@H](CC(C)C)NC(=O)[C@@H](CC2CCCCC2)NC(=O)[C@H](CCN)NC1=O)C(C)O (single isomer, unassigned; isomer 2) [Example 47, 2-(2-aminoethyl)-4-methylhexanoyl L-Thr-L-Dap-polymyxin [D-cyclohexylalanine]-6 heptapeptide. Isomer 2] | – | – | – | – | – | – | – | – | – | 0.125 (≈ 0.113 µM) | – | 0.5 (≈ 0.45 µM) | – | – | 0.5 (≈ 0.45 µM) | 4 (≈ 3.6 µM) | 0.25 (≈ 0.225 µM) | 0.25 (≈ 0.225 µM) | 0.5 (≈ 0.45 µM) | 0.5 (≈ 0.45 µM) | MIC E. coli NCTC 9001 (Escherichia coli): 0.125 mg/L (≈ 0.113 µM)
